# Measured values from PubChem BioAssay (NCI).
# “And” between values parts separate entries of the source, which are not always exact repeats. Equal values may be shown once.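 96-well plates; 48 h exposure; 5 concentrations. Endpoints by linear interpolation between flanking doses. Not reached: highest tested concentration assigned. GI50 marks 50% less growth. Definition used: TGI = concentration required for complete inhibition of growth.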
# Tested on: OVCAR-4 ovarian
# Assay: NCI-60 cell line screen, 48 h
SMILES,GI50,TGI
COc1cc2c(N3CCN(C(=O)Nc4ccc(OC(C)C)cc4)CC3)ncnc2cc1OCCCN1CCCCC1,14.4 µM,53.9 µM
c1ccc(-c2[nH]ncc2-c2ccnc(-c3ccc(OCCn4ccnc4)cc3)c2)nc1,16.1 µM,> 25 µM
O=C(OCc1ccc2c(Br)cc(Br)c(O)c2n1)c1cc2ccccc2[nH]1,0.959 µM,2.31 µM
CC(C)(CO)CNC(=O)c1ccc2[nH]c(O)c(N=Nc3ccc(S(N)(=O)=O)cc3)c2c1,> 25 µM,> 25 µM
Cc1cc(O)c2c(c1)C(=O)C=CC2=O,14.5 µM and 6.75 µM,28.8 µM and 19.5 µM
N#CC1(c2ccc(NC(=O)c3cccnc3NCc3ccncc3)cc2)CCCC1,13.2 µM,98.5 µM
CCN1C(=S)N(CC)C2C1NC(=S)N2/N=C/C=C/c1ccccc1OC (centres undefined),1.1 µM,> 100 µM
Cn1nccc1Nc1nccc(-c2ccn([C@H](CO)c3ccc(Cl)c(F)c3)c(=O)c2)n1,33.5 µM,> 100 µM
COC(=O)OC1C(O[C@H]2C[C@H]3[C@@H]4CC=C5C[C@@H](O)CC[C@]5(C)[C@H]4CC[C@]3(C)[C@H]2[C@H](C)C(=O)CCC(C)C)OCC(O)C1OC1OCC(O)C(O)C1OC(=O)c1ccc(OC)cc1 (some centres undefined),0.0823 µM,> 27.5 µM
O=C1/C(=C\c2ccccc2)CN(C(=O)CCN2CCCCC2)C/C1=C/c1ccccc1,–,4.34 µM
O=C1/C(=C/c2ccc(Cl)c(Cl)c2)CN(C(=O)CCN2CCC(=NO)CC2)C/C1=C\c1ccc(Cl)c(Cl)c1,0.678 µM,1.96 µM
CCN(CC)CCCNc1ccc(C)c2sc3ccccc3c(=O)c12,2.12 µM,33 µM
CCNc1nc(O)c(/C=C2\C=Nc3ncccc32)s1,3.08 µM,> 100 µM
O=C(/C=C/C12c3ccccc3C(c3ccccc31)C1C(=O)NC(=O)C12)c1ccccn1 (centres undefined),2.69 µM,11.7 µM
CC1=C(C(=O)Nc2ccccc2)C(c2ccc(N(C)C)cc2)C(C(=O)Nc2ccccc2)=C(C)N1,–,> 100 µM

# Tested on: MDA-MB-435
# Assay: NCI-60 cell line screen, 48 h
SMILES,GI50,TGI
COc1cc2c(N3CCN(C(=O)Nc4ccc(OC(C)C)cc4)CC3)ncnc2cc1OCCCN1CCCCC1,13.8 µM,29.9 µM
c1ccc(-c2[nH]ncc2-c2ccnc(-c3ccc(OCCn4ccnc4)cc3)c2)nc1,24.5 µM,> 25 µM
O=C(OCc1ccc2c(Br)cc(Br)c(O)c2n1)c1cc2ccccc2[nH]1,0.709 µM,2.08 µM
CC(C)(CO)CNC(=O)c1ccc2[nH]c(O)c(N=Nc3ccc(S(N)(=O)=O)cc3)c2c1,> 25 µM,> 25 µM
Cc1cc(O)c2c(c1)C(=O)C=CC2=O,4.8 µM and 1.93 µM,11.7 µM and 4.25 µM
N#CC1(c2ccc(NC(=O)c3cccnc3NCc3ccncc3)cc2)CCCC1,13.4 µM,37.4 µM
CCN1C(=S)N(CC)C2C1NC(=S)N2/N=C/C=C/c1ccccc1OC (centres undefined),0.0368 µM,0.177 µM
Cn1nccc1Nc1nccc(-c2ccn([C@H](CO)c3ccc(Cl)c(F)c3)c(=O)c2)n1,3.16 µM,> 100 µM
COC(=O)OC1C(O[C@H]2C[C@H]3[C@@H]4CC=C5C[C@@H](O)CC[C@]5(C)[C@H]4CC[C@]3(C)[C@H]2[C@H](C)C(=O)CCC(C)C)OCC(O)C1OC1OCC(O)C(O)C1OC(=O)c1ccc(OC)cc1 (some centres undefined),0.00874 µM,0.0868 µM
O=C1/C(=C\c2ccccc2)CN(C(=O)CCN2CCCCC2)C/C1=C/c1ccccc1,–,6.37 µM
O=C1/C(=C/c2ccc(Cl)c(Cl)c2)CN(C(=O)CCN2CCC(=NO)CC2)C/C1=C\c1ccc(Cl)c(Cl)c1,0.827 µM,2.12 µM
CCN(CC)CCCNc1ccc(C)c2sc3ccccc3c(=O)c12,0.21 µM,0.451 µM
CCNc1nc(O)c(/C=C2\C=Nc3ncccc32)s1,3.49 µM,14.9 µM
O=C(/C=C/C12c3ccccc3C(c3ccccc31)C1C(=O)NC(=O)C12)c1ccccn1 (centres undefined),1.77 µM,5.15 µM
CC1=C(C(=O)Nc2ccccc2)C(c2ccc(N(C)C)cc2)C(C(=O)Nc2ccccc2)=C(C)N1,–,> 26.7 µM

# Tested on: SN12C renal
# Assay: NCI-60 cell line screen, 48 h
SMILES,GI50,TGI
COc1cc2c(N3CCN(C(=O)Nc4ccc(OC(C)C)cc4)CC3)ncnc2cc1OCCCN1CCCCC1,14.9 µM,88 µM
c1ccc(-c2[nH]ncc2-c2ccnc(-c3ccc(OCCn4ccnc4)cc3)c2)nc1,> 25 µM,> 25 µM
O=C(OCc1ccc2c(Br)cc(Br)c(O)c2n1)c1cc2ccccc2[nH]1,0.839 µM,2.18 µM
CC(C)(CO)CNC(=O)c1ccc2[nH]c(O)c(N=Nc3ccc(S(N)(=O)=O)cc3)c2c1,> 25 µM,> 25 µM
Cc1cc(O)c2c(c1)C(=O)C=CC2=O,–,21.9 µM and 28.6 µM
N#CC1(c2ccc(NC(=O)c3cccnc3NCc3ccncc3)cc2)CCCC1,18 µM,> 100 µM
CCN1C(=S)N(CC)C2C1NC(=S)N2/N=C/C=C/c1ccccc1OC (centres undefined),0.67 µM,24.8 µM
